In one data set the test system is S. Typhimurium. Kind of data set: Effect on bacterial growth (OD600) of S. Typhimurium. It is filed as cell-based, Salmonella Typhimurium. Particulars: up to the tested 16 μM concentrations. As for the experimental part: (§1) The effect of the different PNA conjugates and controls on the red fluorescence of bacterial cells was determined using a standard microdilution method[67] in concentration range 0–16 µM. Cultures grown to exponential phase in Davis Minimal Broth were diluted to ~5 × 10^5 CFU/ml. These cell suspensions were added to wells of sterile 96-well plates containing different concentrations of the tested compounds. Following overnight incubation at 37 °C with shaking, the plates were vigorously shaken (double orbital) for 10 sec and then the cell density (OD600) and fluorescence (λ excitation – 584 nm; λ emission – 610 nm) were measured using a plate reader (Microplate Reader Biotek Synergy H1MFDG). The cell suspensions were also examined by light and fluorescence microscopy using a Nikon Eclipse Ni-U microscope (Figure S1).

For data set [1] the following is noted: cited from earlier work. How it is done:
There was no decrease in OD600 upon overnight treatment with the conjugates (up to the tested 16 μM concentrations). Free vitamin B12 has no antibacterial activity at concentrations up to 100 μg/ml[52].

Data set [2] relates to mRNA of the reporter gene mrfp1 expressing Red Fluorescent Protein. Kind of data set: Inhibition of RFP synthesis (red fluorescence) in E. coli carrying pBBR(rfp). It is filed as cell-based, Escherichia coli K-12 MG1655. The conditions noted are these: overnight treatment, 0–16 µM. How it is done:
E. coli TG1[58] was used for plasmid construction. For triparental mating, E. coli DH5α carried the helper plasmid pRK2013[59] and E. coli S17-1[60] was the mrfp1 plasmid donor. E. coli K-12 MG1655[61], and Salmonella enterica subsp. enterica serovar Typhimurium LT2-R (rifampicin resistant mutant of wild-type S. Typhimurium LT2[62]) were used in PNA delivery experiments. To prepare inocula, all strains were grown overnight in lysogeny broth (LB) at 37 °C with shaking. […] Cultures were supplemented with appropriate antibiotics to prevent plasmid loss.
as §1, with “Cultures grown to exponential phase in Davis Minimal Broth were diluted to ~5 × 10^5 CFU/ml. These cell suspensions were added to wells of sterile 96-well plates containing different concentrations of the tested compounds.” left out
To obtain relative fluorescence values (RFU), the background media noise was subtracted from each data point for both cell density (OD600) and fluorescence. […]

A further data set concerns E. coli. As to the kind of experiment: Effect on bacterial growth (OD600) of E. coli. The class given is cell-based, Escherichia coli. Particulars: up to the tested 16 μM concentrations. As for the experimental part: as §1
For data set [3] the following is noted: cited from earlier work. The text has this: (§2) The most serious drawback, which currently precludes the use of this approach, is poor delivery of the oligonucleotides into bacterial cells. The bacterial cell wall prevents the efficient uptake of short oligonucleotides from the environment[14] and non-invasive delivery of PNAs is extremely difficult. To overcome this problem, chemical conjugation of PNA to a variety of cell-penetrating peptides has been tested, [15], [16]. The most commonly used conjugate of PNA with the peptide (KFF)3K was delivered with high efficiency in vitro. However, the activity of (KFF)3K-PNA conjugates was drama ...
The source holds these as a separate data set.

The next data set deals with some mammalian cells. The conditions noted are these: cited from earlier work.
Description: as §2

Where no end group is shown, it is not given here.

With cyanocobalamin [vitamin B12], the “bacterial growth, OD600 after overnight incubation” value in the data set on S. Typhimurium and in the data set with E. coli was “slight increase of OD600” in each case. Also, the “concentration without antibacterial activity” value in data set [1] was over 100 µg/mL. Moreover, the “inhibition of RFP synthesis / mrfp1 expression (in words)” value in data set [2] is “Neither B12–(CH2)12-PNA(scrambled) (Fig. 6) nor free vitamin B12 (data not shown) had any inhibitory effect”.
For the substance KFFKFFKFFK-NH2 [(KFF)3K only], the “concentration with hemolytic activity” value in data set [3] was 40000 ng/mL. Further, in the data set with some mammalian cells, the histamine release result is “initiates histamine release”.
